Results on six compounds are retold here after ChEMBL document CHEMBL1140853, “The stereochemistry of N-methyl and aryl substituents determine the biological activities of 3-aryl-8-methyl-8-azabicyclo[3.2.1]oct-2,3-enes” (Bioorg Med Chem, 2009).

For test [1], the species on record is Homo sapiens. Kind of test: Selectivity for human SERT over human NET.
For test [2], the species on record is Homo sapiens. The test is described as follows: Selectivity for human SERT over human DAT.

`CN1C2C=C(c3ccccc3-c3ccccc3)CC1CC2` (configuration not stated): the values for the Ratio in the test listed under Homo sapiens [1] and in the test listed under Homo sapiens [2] were 3.8 and 5.4, respectively.
For `CN1C2C=C(c3cccc(-c4ccccc4)c3)CC1CC2` (configuration not stated), in that order: 34 and 10.8.
For `CN1C2C=C(c3c[nH]c4ccccc34)CC1CC2` (configuration not stated), in that order: 54 and 8.3.
With `CN1C2C=C(c3cccc4ccccc34)CC1CC2` (configuration not stated), the results for the Ratio in the test filed under Homo sapiens [1] and in the test listed under Homo sapiens [2] were 94.4 and 11.6, respectively.
The like results for `CN1C2C=C(c3ccc4c(c3)Cc3ccccc3-4)CC1CC2` (configuration not stated) were, in that order, 232 and 52.2.
On to `CN1C2C=C(C3c4ccccc4-c4ccccc43)CC1CC2` (configuration not stated), for which the figures for the Ratio in the test listed under Homo sapiens [1] and in the test listed under Homo sapiens [2] were 120 and 13.6, respectively.
